According to patent US10294202B2, “Pyrrolidinones as herbicides” (FMC Corporation, priority 2013, dated 2019):

Tests used:
ragweed = assay: Test A pre-/postemergence herbicide test; format: in vivo, Ambrosia elatior; conditions: for Plant response rating, Ragweed: 0 to 100 scale
In short: (§1)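 Greenhouse pot test with pre- and postemergence application of surfactant-containing solvent formulations. Postemergence plants were 2–10 cm, one- to two-leaf stage. Response scored visually after ~10 days, 0 (no effect) to 100 (complete control).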

pigweed = assay: Test A pre-/postemergence herbicide test; format: in vivo, Amaranthus retroflexus; conditions: for Plant response rating, Pigweed: 0 to 100 scale
In short: as §1

barnyardgrass [1] = assay: Test A pre-/postemergence herbicide test; format: in vivo, Echinochloa crus-galli
In short: as §1

kochia = assay: Test A pre-/postemergence herbicide test; format: in vivo, Kochia scoparia; conditions: for Plant response rating, Kochia: 0 to 100 scale
In short: as §1

barnyardgrass [2] = assay: Test C flooded paddy test; format: in vivo, Echinochloa crus-galli; conditions: Flood
In short: (§2)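 Ratings reflect visual comparison with controls on a 0–100 scale, where 100 is complete control. Compound is dosed into standing paddy water 3 cm deep over 2-leaf-stage plants, kept in the greenhouse 13 to 15 days.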

ryegrass, Italian = assay: Test A pre-/postemergence herbicide test; format: in vivo, Lolium multiflorum; conditions: for Plant response rating, Ryegrass, Italian: 0 to 100 scale
In short: as §1

galium = assay: Test A postemergence herbicide test; format: in vivo, Galium aparine; conditions: for Plant response rating, Galium: 125 g ai/ha, 0 to 100 scale; for Galium plant response rating (0 to 100 scale, 0 is no effect, 100 is complete control): 500 g ai/ha
In short: (§3)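 Potted in loam soil/sand blend; postemergence application at 1–2 leaf stage (2–10 cm). Greenhouse ~10 d. Visual injury vs untreated, 0–100 scale; 100 = complete control.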

rice = assay: Test C flooded paddy test; format: in vivo, Oryza sativa; conditions: Flood
In short: as §2

wheat = assay: Test A pre-/postemergence herbicide test; format: in vivo, Triticum aestivum; conditions: Postemergence; for Plant response rating, Wheat: 125 g ai/ha, 0 to 100 scale; for Wheat plant response rating (0 to 100 scale, 0 is no effect, 100 is complete control): 500 g ai/ha
In short: as §1

giant foxtail = assay: Test A pre-/postemergence herbicide test; format: in vivo, Setaria faberii; conditions: for Plant response rating, Foxtail, Giant: 0 to 100 scale
In short: as §1

blackgrass = assay: Test A postemergence herbicide test; format: in vivo, Alopecurus myosuroides
In short: as §3

ducksalad = assay: Test C flooded paddy test; format: in vivo, Heteranthera limosa; conditions: Flood
In short: as §2

sedge, umbrella = assay: Test C flooded paddy test; format: in vivo, Cyperus difformis; conditions: Flood
In short: as §2

corn = assay: Test A pre-/postemergence herbicide test; format: in vivo, Zea mays; conditions: Postemergence
In short: as §1

[3] = Postemergence, 125 g ai/ha, 0 no effect, 100 complete control
[4] = Preemergence, 125 g ai/ha, visual rating on 0 to 100 scale (0 no effect, 100 complete control)
[5] = 125 g ai/ha, scale of 0 to 100 where 0 is no effect and 100 is complete control, 13 to 15 days
[6] = 0 no effect, 100 complete control
[7] = 125 g ai/ha, 0 to 100 scale, 0 no effect, 100 complete control
[8] = 500 g ai/ha, 0 to 100 scale (0 no effect, 100 complete control)
[9] = 125 g ai/ha, visual rating, 0 no effect, 100 complete control, approximately 10 days, preemergence
[10] = Postemergence, 125 g ai/ha, 0 is no effect, 100 is complete control
[11] = preemergence, 500 g ai/ha, 0 is no effect and 100 is complete control
[12] = 250 g ai/ha, scale of 0 to 100 where 0 is no effect and 100 is complete control, 13 to 15 days
[13] = 0 is no effect, 100 is complete control
[14] = 125 g ai/ha, 0 to 100 scale, 0 is no effect, 100 is complete control

O=C1NCC(c2cccc(C(F)(F)F)c2)C1C(=O)Nc1nnc(C(F)(F)F)s1 (racemic) [Compound 112]
0: Plant response rating, Ragweed (ragweed; [3]) | Ragweed plant response rating (0 to 100 scale, 0 is no effect, 100 is complete control) (ragweed; Postemergence, 500 g ai/ha) | Ragweed plant response rating (ragweed; [4]) | Plant response rating, Ragweed (ragweed; preemergence, 500 g ai/ha) | Plant response rating, Pigweed (pigweed; [3]) | Pigweed plant response rating (0 to 100 scale, 0 is no effect, 100 is complete control) (pigweed; Postemergence, 500 g ai/ha) | Pigweed plant response rating (pigweed; [4]) | Plant response rating, Pigweed (pigweed; preemergence, 500 g ai/ha) | Plant response rating, Barnyardgrass (barnyardgrass [1]; Postemergence, 125 g ai/ha, 0 to 100 scale, 0 no effect, 100 complete control) | Plant response rating, Barnyardgrass (barnyardgrass [1]; Postemergence, 500 g ai/ha, 0 to 100 scale (0 no effect, 100 complete control)) | Barnyardgrass plant response rating (barnyardgrass [1]; [4]) | Plant response rating, Barnyardgrass (barnyardgrass [1]; preemergence, 500 g ai/ha, 0 to 100 scale (0 no effect, 100 complete control)) | Plant response rating, Kochia (kochia; [3]) | Kochia plant response rating (0 to 100 scale, 0 is no effect, 100 is complete control) (kochia; Postemergence, 500 g ai/ha) | Kochia plant response rating (kochia; [4]) | Plant response rating, Kochia (kochia; preemergence, 500 g ai/ha) | Plant response rating, Barnyardgrass (barnyardgrass [2]; [5]) | Plant response rating, Barnyardgrass (barnyardgrass [2]; 250 g ai/ha, scale 0 to 100) | Plant response rating, Barnyardgrass (barnyardgrass [2]; 500 g ai/ha, scale 0 to 100) | Plant response rating, Barnyardgrass (barnyardgrass [2]; 1000 g ai/ha, scale 0 to 100) | Plant response rating, Ryegrass, Italian (ryegrass, Italian; [3]) | Ryegrass, Italian plant response rating (0 to 100 scale, 0 is no effect, 100 is complete control) (ryegrass, Italian; Postemergence, 500 g ai/ha) | Ryegrass, Italian plant response rating (ryegrass, Italian; [4]) | Plant response rating, Ryegrass, Italian (ryegrass, Italian; preemergence, 500 g ai/ha) | Plant response rating, Galium (galium; [6]) | Galium plant response rating (0 to 100 scale, 0 is no effect, 100 is complete control) (galium) | Plant response rating, Rice (rice; [5]) | Plant response rating, Rice (rice; 250 g ai/ha, scale 0 to 100) | Plant response rating, Rice (rice; 500 g ai/ha, scale 0 to 100) | Plant response rating, Rice (rice; 1000 g ai/ha, scale 0 to 100) | Plant response rating, Wheat (wheat; [6]) | Wheat plant response rating (0 to 100 scale, 0 is no effect, 100 is complete control) (wheat) | Plant response rating, Foxtail, Giant (giant foxtail; [3]) | Foxtail, Giant plant response rating (0 to 100 scale, 0 is no effect, 100 is complete control) (giant foxtail; Postemergence, 500 g ai/ha) | Foxtail, Giant plant response rating (giant foxtail; [4]) | Plant response rating, Foxtail, Giant (giant foxtail; preemergence, 500 g ai/ha) | Plant response rating, Blackgrass (blackgrass; [7]) | Plant response rating, Blackgrass (blackgrass; [8]) | Plant response rating, Ducksalad (ducksalad; [5]) | Plant response rating, Ducksalad (ducksalad; 250 g ai/ha, scale 0 to 100) | Plant response rating, Ducksalad (ducksalad; 500 g ai/ha, scale 0 to 100) | Plant response rating, Ducksalad (ducksalad; 1000 g ai/ha, scale 0 to 100) | Plant response rating, Sedge, Umbrella (sedge, umbrella; [5]) | Plant response rating, Sedge, Umbrella (sedge, umbrella; 250 g ai/ha, scale 0 to 100) | Plant response rating, Sedge, Umbrella (sedge, umbrella; 500 g ai/ha, scale 0 to 100) | Plant response rating, Sedge, Umbrella (sedge, umbrella; 1000 g ai/ha, scale 0 to 100) | Plant response rating, Corn (corn; [7]) | Plant response rating, Corn (corn; [8])

O=C1NC[C@@H](c2cccc(C(F)(F)F)c2)[C@@H]1C(=O)Nc1cccc(F)c1F [Compound 205]
65: Plant response rating, Ducksalad (ducksalad; 1000 g ai/ha, scale 0 to 100)
60: Galium plant response rating (0 to 100 scale, 0 is no effect, 100 is complete control) (galium) | Plant response rating, Foxtail, Giant (giant foxtail; [9])
20: Plant response rating, Pigweed (pigweed; [11]) | Plant response rating, Kochia (kochia; [9]) | Plant response rating, Barnyardgrass (barnyardgrass [2]; [12]) | Plant response rating, Ryegrass, Italian (ryegrass, Italian; [11])
80: Plant response rating, Barnyardgrass (barnyardgrass [1]; preemergence, 500 g ai/ha, 0 to 100 scale, 0 is no effect and 100 is complete control)
90: Foxtail, Giant plant response rating (0 to 100 scale, 0 is no effect, 100 is complete control) (giant foxtail; Postemergence, 500 g ai/ha) | Plant response rating, Foxtail, Giant (giant foxtail; [11])
0: Plant response rating, Ragweed (ragweed; [9]) | Plant response rating, Ragweed (ragweed; [10]) | Ragweed plant response rating (0 to 100 scale, 0 is no effect, 100 is complete control) (ragweed; Postemergence, 500 g ai/ha) | Plant response rating, Pigweed (pigweed; [9]) | Plant response rating, Pigweed (pigweed; [10]) | Plant response rating, Kochia (kochia; [10]) | Plant response rating, Barnyardgrass (barnyardgrass [2]; [5]) | Plant response rating, Ryegrass, Italian (ryegrass, Italian; [9]) | Plant response rating, Ryegrass, Italian (ryegrass, Italian; [10]) | Ryegrass, Italian plant response rating (0 to 100 scale, 0 is no effect, 100 is complete control) (ryegrass, Italian; Postemergence, 500 g ai/ha) | Plant response rating, Rice (rice; [5]) | Plant response rating, Rice (rice; [12]) | Plant response rating, Rice (rice; 500 g ai/ha, scale 0 to 100) | Plant response rating, Rice (rice; 1000 g ai/ha, scale 0 to 100) | Plant response rating, Wheat (wheat; [13]) | Plant response rating, Blackgrass (blackgrass; [14]) | Plant response rating, Ducksalad (ducksalad; [5]) | Plant response rating, Ducksalad (ducksalad; [12]) | Plant response rating, Sedge, Umbrella (sedge, umbrella; [5]) | Plant response rating, Sedge, Umbrella (sedge, umbrella; [12]) | Plant response rating, Sedge, Umbrella (sedge, umbrella; 500 g ai/ha, scale 0 to 100) | Plant response rating, Sedge, Umbrella (sedge, umbrella; 1000 g ai/ha, scale 0 to 100) | Plant response rating, Corn (corn; [14]) | Corn plant response rating (0 to 100 scale, 0 is no effect, 100 is complete control) (corn; 500 g ai/ha)
30: Plant response rating, Ragweed (ragweed; [11]) | Pigweed plant response rating (0 to 100 scale, 0 is no effect, 100 is complete control) (pigweed; Postemergence, 500 g ai/ha) | Plant response rating, Barnyardgrass (barnyardgrass [1]; 125 g ai/ha, visual rating, 0 to 100 scale, 0 no effect, 100 complete control, approximately 10 days, preemergence) | Plant response rating, Barnyardgrass (barnyardgrass [2]; 500 g ai/ha, scale 0 to 100) | Plant response rating, Galium (galium; [13])
40: Plant response rating, Barnyardgrass (barnyardgrass [1]; Postemergence, 125 g ai/ha, 0 to 100 scale, 0 is no effect, 100 is complete control) | Kochia plant response rating (0 to 100 scale, 0 is no effect, 100 is complete control) (kochia; Postemergence, 500 g ai/ha) | Wheat plant response rating (0 to 100 scale, 0 is no effect, 100 is complete control) (wheat)
45: Plant response rating, Barnyardgrass (barnyardgrass [2]; 1000 g ai/ha, scale 0 to 100)
70: Barnyardgrass plant response rating (0 to 100 scale, 0 is no effect, 100 is complete control) (barnyardgrass [1]; Postemergence, 500 g ai/ha) | Plant response rating, Foxtail, Giant (giant foxtail; [10]) | Blackgrass plant response rating (0 to 100 scale, 0 is no effect, 100 is complete control) (blackgrass; 500 g ai/ha)
50: Plant response rating, Kochia (kochia; [11]) | Plant response rating, Ducksalad (ducksalad; 500 g ai/ha, scale 0 to 100)
